≈ marks a conversion by molar mass, not a printed value.
Test system: T1, C. testosteroni S44
T1 construct: S44
Experiment: organism not typed
Set-up: species or system Comamonas testosteroni S44; Broth dilution MIC in Mueller-Hinton broth, bacterial growth inhibition (CLSI)
Details: wild-type S44, MH broth
Description: Minimal inhibitory concentration profiles of the recombinant E. coli DH5α ([Miller and Mekalanos, 1988]) expressing czoA (pCT-Zori::czoA) and the isogenic strains of C. testosteroni S44 (S44, ΔczoR, ΔczoR-C, ΔiscR, and ΔiscR-C) were determined by the broth dilution method ([Clinical and Laboratory Standards Institute, 2014]) using 11 β-lactams. For the recombinant E. coli DH5α, two β-lactamase inhibitors, clavulanic acid, and tazobactam were also tested. E. coli DH5α (pCT-Zori) was used as a control. Clavulanic acid and tazobactam were generally fixed at a concentration of 2 and 4 μg/ml, respectively ([Girlich et al., 2007]; [Naas et al., 2007]; [Lamoureaux et al., 2013]; [Clinical and Laboratory Standards Institute, 2014]). Moreover, growth tendency of the isogenic strains of S44 under stress of 11 β-lactams with concentration below MIC was evaluated through OD600 values. Isogenic strains of C. testosteroni S44 in exponential growth phase were inoculated with each of 11 β-lactams in MH medium at 37°C and OD600 values were determined using a spectrophotometer after growth for 24 h. Bacterial strains, plasmids, and [compound left out] primers used in this study are shown in Supplementary Table S1. All strains were grown at 37°C in Luria-Bertani (LB, Oxoid, United Kingdom) broth unless otherwise stated. Mueller-Hinton (MH, Beijing Land Bridge Technology, China) broth dilution was used to determine the minimal inhibitory concentration (MIC) of antibiotics. Antibiotic disk (Hangzhou Microbial Reagent, China) diffusion tests were used for the antibiotic susceptibility assay (cephalexin and cefazolin). […] Then, the seed [compound left out] was used directly in relevant experiments.

Compound	MIC
CC1(C)S[C@@H]2[C@H](NC(=O)Cc3ccccc3)C(=O)N2[C@H]1C(=O)O [Benzylpenicillin]	> 2050 µg/mL
CO[C@@]1(NC(=O)Cc2cccs2)C(=O)N2C(C(=O)O)=C(COC(N)=O)CS[C@@H]21 [Cefoxitin]	128 µg/mL (≈ 299 µM)
CC1(C)S[C@@H]2[C@H](NC(=O)[C@H](N)c3ccccc3)C(=O)N2[C@H]1C(=O)O [Ampicillin]	> 2050 µg/mL
C[C@@H](O)[C@H]1C(=O)N2C(C(=O)O)=C(SCCNC=N)C[C@H]12 [Imipenem]	8 µg/mL (≈ 26.7 µM)
CC1=C(C(=O)O)N2C(=O)[C@@H](NC(=O)[C@H](N)c3ccccc3)[C@H]2SC1 [Cefalexin]	> 1020 µg/mL

Further lines, results first:

MIC	Compound
> 1020 µg/mL	CO/N=C(\C(=O)N[C@@H]1C(=O)N2C(C(=O)O)=C(CSc3nc(=O)c(=O)[nH]n3C)CS[C@H]12)c1csc(N)n1 [Ceftriaxone]
> 2050 µg/mL	Cc1nnc(SCC2=C(C(=O)O)N3C(=O)[C@@H](NC(=O)Cn4cnnn4)[C@H]3SC2)s1 [Cefazolin]
> 128 µg/mL	CO/N=C(\C(=O)N[C@@H]1C(=O)N2C(C(=O)O)=C(COC(N)=O)CS[C@H]12)c1ccco1 [Cefuroxime]
128 µg/mL (≈ 234 µM)	CC(C)(O/N=C(\C(=O)N[C@@H]1C(=O)N2C(C(=O)[O-])=C(C[n+]3ccccc3)CS[C@H]12)c1csc(N)n1)C(=O)O [Ceftazidime]
> 512 µg/mL	CO/N=C(\C(=O)N[C@@H]1C(=O)N2C(C(=O)[O-])=C(C[N+]3(C)CCCC3)CS[C@H]12)c1csc(N)n1 [Cefepime]
1 µg/mL (≈ 2.61 µM)	C[C@@H](O)[C@H]1C(=O)N2C(C(=O)O)=C(S[C@@H]3CN[C@H](C(=O)N(C)C)C3)[C@H](C)[C@H]12 [Meropenem]
